From patent publication US9493466B2, “Treatment of cancer with TOR kinase inhibitors” (Signal Pharmaceuticals, LLC, priority 2011, dated 2016)

System: TORC1 (pS6, p4EBP1) and TORC2 (pAkt) pathways
Experiment: TOR pathway biomarker measurements in whole blood
Assay type: in vivo, human
From the text: Parameters to be explored include mTOR biomarker inhibition in blood and tumor, histopathologic response, correlations with pharmacogenomic findings and percentage of inhibition of pAKT (Ser473), phospho-S6RP (Ser235/236 and/or Ser240/244), phospho-4EB-P1 (Thr37/46), and/or other relevant biomarkers in peripheral blood samples and tumor, adverse events and clinical outcome. The pharmacodynamic (PD) measurements are incorporated in this study to evaluate target inhibition of mTORC1 and mTORC2 pathways, the consequences of such inhibition, and PK/PD relationships. In Parts A and B, biomarker analysis will involve measuring pAKT (mTORC2) in protein lysates derived from isolated platelets. Levels of p4EB-P1 and pS6RP (mTORC1), and pAKT (mTORC2), will be measured by flow cytometry using whole blood samples. Likewise, in Parts A and B, pAKT, p4EB-P1, p56, Ki67 and/or other relevant markers to assess Compound 1 activity will be measured in serial tumor biopsies from subjects with accessible disease when possible. The changes of each biomarker will be determined by comparing the levels of biomarkers in pre- and post-treatment samples and, where possible, correlate these with drug exposure in blood, and tissue if available, and tumor response over time. Full details of all statistical analyses and modeling for these outcomes will be described in the statistical analysis plan and final study report.
TOR Pathway Biomarker Measurements in Whole Blood. Blood samples received from clinical sites were aliquoted into a 96-deepwell plate and rested for 1 hour at 37° C. The samples were stimulated with anti-IgD and LPS for 15 minutes at 37° C. The red blood cells were lysed and the white blood cells were fixed with BD Lyse/Fix Buffer at a ratio of 15:1 buffer to blood for 10 minutes at 37° C. The plates were centrifuged, aspirated, and 1 mL of ice-cold methanol was added to the wells containing fixed white blood cells to permeabilize the cells for intracellular staining. The plates were stored overnight at −80° C. The plates were thawed, centrifuged, aspirated and washed twice with PBS+0.5% BSA. The cells were stained with antibodies specific for the surface markers CD3, CD14, and CD19, and for mTOR pathway markers, including pS6 (S235/236), p4EBP1 (T37/46), and pAKT (S473). The cells were washed twice with PBS and fixed with 1.6% PFA.
Sample analysis: The samples were analyzed on an 8 color cytometer. Control wells of 8-peak rainbow beads (Spherotech Libertyville, Ill.) were acquired at multiple points during sample acquisition. The median fluorescence intensity (MFI) was computed for each marker from the fluorescence intensity levels in T cells, B cells, and monocytes. The MFI were normalized using the 8-peak rainbow beads and presented as ERF (Equivalent number of Reference Fluorophores). ERFs were calculated from the MFIs using a linear regression transformation carried out on a log-log scale using the rainbow calibration particles with 8 intensities on 8 colors. The percent change from baseline for pS6, p4EBP1, and pAKT in stimulated and non-stimulated T cells, B cells, and monocytes was determined for each patient. The baseline value was an average of two visits (screening and cycle 1/day −1 at 0 hr pre-dose) when available.

CO[C@H]1CC[C@H](N2C(=O)CNc3ncc(-c4ccc(C(C)(C)O)nc4)nc32)CC1 [Compound 1, 7-(6-(2-hydroxypropan-2-yl)pyridin-3-yl)-1-((1r,4r)-4-methoxycyclohexyl)-3,4-dihydropyrazino-[2,3-b]pyrazin-2(1H)-one]
inhibition of TORC1 and TORC2 biomarkers (Part A, doses of 30 mg and higher, up to 5 hours post first dose, stimulated blood): Consistent inhibition | TORC1 and TORC2 inhibition (Part B, DLBCL patients): observed in the first patient analyzed | TORC1 and TORC2 inhibition (Part B, GBM patients): observed in majority of patients | TORC1 and TORC2 inhibition (Part B, HCC patients): observed in majority of patients | TORC1 and TORC2 inhibition (Part B, MM patients): observed in 2 patients | TORC1 and TORC2 inhibition (Part B, NSCLC patients): observed in majority of patients | TORC1 and TORC2 inhibition (pAkt, p4EPB1) (Part B, all cohorts, blood, 1.5 h after dosing, Cycle 1 Day 1 and Day 15, P <0.001): inhibition was observed
